Experimental data taken from patent US10736883B2, “Triazole furan compounds as agonists of the APJ receptor” (AMGEN INC., priority 2016, dated 2020).

Biological target: APJ receptor (Homo sapiens (Human), UniProt P35414)
Assay: [35S]GTPγS binding assay on membranes from CHO cells stably expressing human APJ receptor
Type: biochemical
Conditions: membranes of CHO cells stably expressing human APJ receptor, means of several independent experiments, read-out: Activity hAPJ SPA EC50 IP
Method in brief: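 EC50 values were obtained by non-linear regression of [35S]GTPγS (0.2 nM) binding after 90 min at RT, with nonspecific binding defined by 100 μM GTPγS. Reactions used human APJ–expressing CHO cell membranes on WGA PS beads in HEPES pH 7.5 buffer with 5 mM MgCl2, 200 mM NaCl, 3 μM GDP and 0.1% BSA.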

Chain of APJ receptor (P35414 whole entry): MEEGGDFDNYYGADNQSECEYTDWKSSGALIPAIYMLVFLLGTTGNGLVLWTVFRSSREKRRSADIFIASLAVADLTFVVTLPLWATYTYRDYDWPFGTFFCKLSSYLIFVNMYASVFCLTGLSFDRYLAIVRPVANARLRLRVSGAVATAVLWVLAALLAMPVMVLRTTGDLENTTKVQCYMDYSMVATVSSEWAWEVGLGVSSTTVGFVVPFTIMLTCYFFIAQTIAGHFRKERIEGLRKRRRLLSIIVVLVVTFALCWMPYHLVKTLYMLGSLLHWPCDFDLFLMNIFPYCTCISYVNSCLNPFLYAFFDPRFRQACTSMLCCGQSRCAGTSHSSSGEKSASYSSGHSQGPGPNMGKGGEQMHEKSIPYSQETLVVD

SMILES | EC50 [nM]
COc1cccc(OC)c1-n1c(NS(=O)(=O)[C@H](C)[C@@H](OC)c2cn3ccccc3n2)nnc1-c1ccc(C)o1 (single isomer, unassigned) [Example 287.0, (1R,2S)—N-(4-(2,6-Dimethoxyphenyl)-5-(5-methyl-2-furanyl)-4H-1,2,4-triazol-3-yl)-1-imidazo[1,2-a]pyridin-2-yl-1-methoxy-2-propanesulfonamide or (1S,2R)—N-(4-(2,6-dimethoxyphenyl)-5-(5-methyl-2-furanyl)-4H-1,2,4-triazol-3-yl)-1-imidazo[1,2-a]pyridin-2-yl-1-methoxy-2-propanesulfonamide] | 4.1
COc1cccc(OC)c1-n1c(NS(=O)(=O)[C@H](C)[C@@H](O)c2ncn3ccccc23)nnc1-c1ccc(C)o1 (single isomer, unassigned) [Example 288.0, (1R,2S)—N-(4-(2,6-Dimethoxyphenyl)-5-(5-methyl-2-furanyl)-4H-1,2,4-triazol-3-yl)-1-hydroxy-1-imidazo[1,5-a]pyridin-1-yl-2-propanesulfonamide or (1S,2R)—N-(4-(2,6-dimethoxyphenyl)-5-(5-methyl-2-furanyl)-4H-1,2,4-triazol-3-yl)-1-hydroxy-1-imidazo[1,5-a]pyridin-1-yl-2-propanesulfonamide] | 4.2
COc1cccc(OC)c1-n1c(NS(=O)(=O)[C@@H](C)[C@H](O)c2cn3ccccc3n2)nnc1-c1ccc(C)o1 (single isomer, unassigned) [Example 289.0, (1R,2S)—N-(4-(2,6-Dimethoxyphenyl)-5-(5-methyl-2-furanyl)-4H-1,2,4-triazol-3-yl)-1-hydroxy-1-imidazo[1,2-a]pyridin-2-yl-2-propanesulfonamide or (1S,2R)—N-(4-(2,6-dimethoxyphenyl)-5-(5-methyl-2-furanyl)-4H-1,2,4-triazol-3-yl)-1-hydroxy-1-imidazo[1,2-a]pyridin-2-yl-2-propanesulfonamide] | 4.9
COc1cccc(OC)c1-n1c(NS(=O)(=O)[C@@H](C)[C@H](O)c2cc3n(n2)CCCO3)nnc1-c1ccc(C)o1 (single isomer, unassigned) [Example 292.0, (1R,2S)-1-(6,7-Dihydro-5H-pyrazolo[5,1-b][1,3]oxazin-2-yl)-N-(4-(2,6-dimethoxyphenyl)-5-(5-methyl-2-furanyl)-4H-1,2,4-triazol-3-yl)-1-hydroxy-2-propanesulfonamide or (1S,2R)-1-(6,7-dihydro-5H-pyrazolo[5,1-b][1,3]oxazin-2-yl)-N-(4-(2,6-dimethoxyphenyl)-5-(5-methyl-2-furanyl)-4H-1,2,4-triazol-3-yl)-1-hydroxy-2-propanesulfonamide] | 5.1
COc1cccc(OC)c1-n1c(NS(=O)(=O)[C@H](C)[C@@H](O)c2ccnc3c2OCCC3)nnc1-c1ccc(C)o1 (single isomer, unassigned) [Example 293.0, (1R,2S)-1-(3,4-Dihydro-2H-pyrano[3,2-b]pyridin-8-yl)-N-(4-(2,6-dimethoxyphenyl)-5-(5-methyl-2-furanyl)-4H-1,2,4-triazol-3-yl)-1-hydroxy-2-propanesulfonamide or (1S,2R)-1-(3,4-dihydro-2H-pyrano[3,2-b]pyridin-8-yl)-N-(4-(2,6-dimethoxyphenyl)-5-(5-methyl-2-furanyl)-4H-1,2,4-triazol-3-yl)-1-hydroxy-2-propanesulfonamide] | 5.5
COc1cccc(OC)c1-n1c(NS(=O)(=O)[C@H](C)[C@@H](O)c2cnc3ccccn23)nnc1-c1ccc(C)o1 (single isomer, unassigned) [Example 294.0, (1R,2S)—N-(4-(2,6-Dimethoxyphenyl)-5-(5-methyl-2-furanyl)-4H-1,2,4-triazol-3-yl)-1-hydroxy-1-imidazo[1,2-a]pyridin-3-yl-2-propanesulfonamide or (1S,2R)—N-(4-(2,6-dimethoxyphenyl)-5-(5-methyl-2-furanyl)-4H-1,2,4-triazol-3-yl)-1-hydroxy-1-imidazo[1,2-a]pyridin-3-yl-2-propanesulfonamide] | 5.8
COc1cccc(OC)c1-n1c(NS(=O)(=O)[C@@H](C)[C@H](O)c2cccc3ccnn23)nnc1-c1ccc(C)o1 (single isomer, unassigned) [Example 296.0, (1R,2S)—N-(4-(2,6-Dimethoxyphenyl)-5-(5-methyl-2-furanyl)-4H-1,2,4-triazol-3-yl)-1-hydroxy-1-pyrazolo[1,5-a]pyridin-7-yl-2-propanesulfonamide or (1S,2R)—N-(4-(2,6-dimethoxyphenyl)-5-(5-methyl-2-furanyl)-4H-1,2,4-triazol-3-yl)-1-hydroxy-1-pyrazolo[1,5-a]pyridin-7-yl-2-propanesulfonamide] | 6.8
COc1cccc(OC)c1-n1c(NS(=O)(=O)[C@H](C)[C@@H](O)c2nccn2C)nnc1-c1ccc(C)o1 (single isomer, unassigned) [Example 297.0, (1S,2R)—N-(4-(2,6-Dimethoxyphenyl)-5-(5-methyl-2-furanyl)-4H-1,2,4-triazol-3-yl)-1-hydroxy-1-(1-methyl-1H-imidazol-2-yl)-2-propanesulfonamide or (1R,2S)—N-(4-(2,6-dimethoxyphenyl)-5-(5-methyl-2-furanyl)-4H-1,2,4-triazol-3-yl)-1-hydroxy-1-(1-methyl-1H-imidazol-2-yl)-2-propanesulfonamide] | 8.8
COc1cccc(OC)c1-n1c(NS(=O)(=O)[C@H](C)[C@H](O)c2cscn2)nnc1-c1ccc(C)o1 (single isomer, unassigned) [Example 298.0, (1R,2R)—N-(4-(2,6-Dimethoxyphenyl)-5-(5-methyl-2-furanyl)-4H-1,2,4-triazol-3-yl)-1-hydroxy-1-(1,3-thiazol-4-yl)-2-propanesulfonamide or (1S,2S)—N-(4-(2,6-dimethoxyphenyl)-5-(5-methyl-2-furanyl)-4H-1,2,4-triazol-3-yl)-1-hydroxy-1-(1,3-thiazol-4-yl)-2-propanesulfonamide] | 11
COc1cccc(OC)c1-n1c(NS(=O)(=O)[C@@H](C)[C@H](O)c2cccc3nccn23)nnc1-c1ccc(C)o1 (single isomer, unassigned) [Example 299.0, (1R,2S)—N-(4-(2,6-Dimethoxyphenyl)-5-(5-methyl-2-furanyl)-4H-1,2,4-triazol-3-yl)-1-hydroxy-1-imidazo[1,2-a]pyridin-5-yl-2-propanesulfonamide or (1S,2R)—N-(4-(2,6-dimethoxyphenyl)-5-(5-methyl-2-furanyl)-4H-1,2,4-triazol-3-yl)-1-hydroxy-1-imidazo[1,2-a]pyridin-5-yl-2-propanesulfonamide] | 11
COc1cccc(OC)c1-n1c(NS(=O)(=O)[C@H](C)[C@@H](O)c2coc(C)n2)nnc1-c1ccc(C)o1 (single isomer, unassigned) [Example 303.0, (1R,2S)—N-(4-(2,6-Dimethoxyphenyl)-5-(5-methyl-2-furanyl)-4H-1,2,4-triazol-3-yl)-1-hydroxy-1-(2-methyl-1,3-oxazol-4-yl)-2-propanesulfonamide or (1S,2R)—N-(4-(2,6-dimethoxyphenyl)-5-(5-methyl-2-furanyl)-4H-1,2,4-triazol-3-yl)-1-hydroxy-1-(2-methyl-1,3-oxazol-4-yl)-2-propanesulfonamide] | 13
COc1cccc(OC)c1-n1c(NS(=O)(=O)[C@@H](C)[C@@H](O)c2cc3ccccn3n2)nnc1-c1ccc(C)o1 (single isomer, unassigned) [Example 304.0, (1S,2S)—N-(4-(2,6-Dimethoxyphenyl)-5-(5-methyl-2-furanyl)-4H-1,2,4-triazol-3-yl)-1-hydroxy-1-pyrazolo[1,5-a]pyridin-2-yl-2-propanesulfonamide or (1R,2R)—N-(4-(2,6-dimethoxyphenyl)-5-(5-methyl-2-furanyl)-4H-1,2,4-triazol-3-yl)-1-hydroxy-1-pyrazolo[1,5-a]pyridin-2-yl-2-propanesulfonamide] | 16
COc1cccc(OC)c1-n1c(NS(=O)(=O)[C@H](C)[C@@H](O)c2cscn2)nnc1-c1ccc(C)o1 (single isomer, unassigned) [Example 307.0, (1S,2R)—N-(4-(2,6-Dimethoxyphenyl)-5-(5-methyl-2-furanyl)-4H-1,2,4-triazol-3-yl)-1-hydroxy-1-(1,3-thiazol-4-yl)-2-propanesulfonamide or (1R,2S)—N-(4-(2,6-dimethoxyphenyl)-5-(5-methyl-2-furanyl)-4H-1,2,4-triazol-3-yl)-1-hydroxy-1-(1,3-thiazol-4-yl)-2-propanesulfonamide] | 28
COc1cccc(OC)c1-n1c(NS(=O)(=O)[C@@H](C)[C@@H](O)c2cn3ccccc3n2)nnc1-c1ccc(C)o1 (single isomer, unassigned) [Example 308.0, (1S,2S)—N-(4-(2,6-Dimethoxyphenyl)-5-(5-methyl-2-furanyl)-4H-1,2,4-triazol-3-yl)-1-hydroxy-1-imidazo[1,2-a]pyridin-2-yl-2-propanesulfonamide or (1R,2R)—N-(4-(2,6-dimethoxyphenyl)-5-(5-methyl-2-furanyl)-4H-1,2,4-triazol-3-yl)-1-hydroxy-1-imidazo[1,2-a]pyridin-2-yl-2-propanesulfonamide] | 33
COc1cccc(OC)c1-n1c(NS(=O)(=O)[C@H](C)[C@H](O)c2cscn2)nnc1-c1ccc(C)o1 (single isomer, unassigned) [Example 309.0, (1S,2S)—N-(4-(2,6-Dimethoxyphenyl)-5-(5-methyl-2-furanyl)-4H-1,2,4-triazol-3-yl)-1-hydroxy-1-(1,3-thiazol-4-yl)-2-propanesulfonamide or (1R,2R)—N-(4-(2,6-dimethoxyphenyl)-5-(5-methyl-2-furanyl)-4H-1,2,4-triazol-3-yl)-1-hydroxy-1-(1,3-thiazol-4-yl)-2-propanesulfonamide] | 61
